# From paper PMC3548330 (Bioconjugate chemistry, 2012)
# Where two headings read alike, the source gives them in different places.
# How the values were obtained:
# Ag85C = Ag85C (Mycobacterium tuberculosis, UniProt P9WQN9); test: 4-methylumbelliferyl butyrate; format: biochemical
# [1] = system: M. tuberculosis inside macrophages; conditions: 100 µM concentration; cited from earlier work
# synthesis of TDM = conditions: cited from earlier work
# M. tuberculosis = conditions: cited from earlier work
# Mycobacterium aurum = conditions: surrogate for Mycobacterium tuberculosis; cited from earlier work
# Ag85s = conditions: screening of the NIH Clinical Collection; cited from earlier work
# M. smegmatis = conditions: cited from earlier work
# [2] = 600 nM Ag85C, 10 mM trehalose, 100 µM 4-MUB, 37 °C, inhibitor 20-320 µM
# Sequence of Ag85C (P9WQN9 46-340): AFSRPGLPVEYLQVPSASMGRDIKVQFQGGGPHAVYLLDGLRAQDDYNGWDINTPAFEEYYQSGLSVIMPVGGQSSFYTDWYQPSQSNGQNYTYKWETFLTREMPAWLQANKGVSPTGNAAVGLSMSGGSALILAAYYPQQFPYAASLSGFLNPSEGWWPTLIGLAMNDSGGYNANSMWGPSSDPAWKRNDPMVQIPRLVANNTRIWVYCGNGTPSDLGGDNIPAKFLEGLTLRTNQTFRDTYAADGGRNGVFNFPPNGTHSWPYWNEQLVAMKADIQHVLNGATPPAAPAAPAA
smiles,measurement,setting,value
"CO[C@H]1O[C@H](CSCC(=O)Nc2sc3c(c2C#N)CCCC3)[C@@H](O)[C@@H]1O [Compound 13b, N-(3-cyano-4,5,6,7-tetrahydrobenzo[b]thiophen-2-yl)-2-(methyl 5-thio-α-D-arabinofuranoside-5-S-yl)acetamide]",Ki,Ag85C; [2],34.8 µM
"CCCC1CCc2c(sc(N)c2C#N)C1 (centres unmarked) [Compound I3-AG85, 2-amino-6-propyl-4,5,6,7-tetrahydro-1-benzothiophene-3-carbonitrile]",survival of M. tuberculosis inside macrophages,[1],reduced survival
same,inhibition of the synthesis of TDM,synthesis of TDM,inhibit the synthesis of TDM
same,concentration inhibiting growth of MDR and XDR strains,M. tuberculosis; 7 MDR and 3 XDR M. tuberculosis strains,≤ 200 µM
same,MIC,M. tuberculosis; M. tuberculosis,100 µg/mL
[N-]=[N+]=NC[C@H]1O[C@H](O[C@H]2O[C@H](CO)[C@@H](O)[C@H](O)[C@H]2O)[C@H](O)[C@@H](O)[C@@H]1O [6-azido-6-deoxytrehalose],growth inhibition of Mycobacterium aurum,Mycobacterium aurum,completely inhibit the growth
O=c1c2ccccc2[se]n1-c1ccccc1 [ebselen],inhibition of Ag85s,Ag85s,nM inhibitor
"COC1O[C@H](CSCCn2c(=O)[nH]c3sc4c(c3c2=O)CCCC4)[C@@H](O)[C@@H]1O (stereo partly drawn) [Compound 14, Methyl 5-S-[2-(2,4-dioxo-1,4,5,6,7,8-hexahydro[1]benzothieno[2,3-d]-pyrimidin-3(2H)-yl)ethyl]-5-thioarabinofuranoside]",Ki,Ag85C,47.1 µM
"CCOC(=O)c1c(NC(=O)CSCC2OC(OC)C(O)C2O)sc2c1CCCC2 [Compound 13a, Ethyl 2-(methyl 5-thio-α-D-arabinofuranoside-5-S-yl)acetamido-4,5,6,7-tetrahydrobenzo[b]thiophene-3-carboxylate]",Ki,Ag85C; [2],18.2 µM
"CCOC(=O)c1c(NC(=O)C(CC)SC[C@H]2O[C@H](OC)[C@@H](O)[C@@H]2O)sc2c1CCCC2 (stereo partly drawn) [Compound 13c, Ethyl 2-(methyl 5-thio-α-D-arabinofuranoside-5-S-yl)butamido-4,5,6,7-tetrahydrobenzo[b]thiophene-3-carboxylate]",Ki,Ag85C; [2],71 µM
"N#Cc1c(N)sc2c1CCCC2 [Compound 1b, 2-Amino-4,5,6,7-tetrahydrobenzo[b]thiophene-3-carbonitrile]",MIC,M. smegmatis,50 to 100 µg/mL
